Experimental data as given in ChEMBL document CHEMBL4000195, “Design and synthesis of novel 7-aminosubstituted pyrido[2,3-b]pyrazines exhibiting anti-breast cancer activity” (Eur J Med Chem, 2017).
Activity calls are given as the source filed them. The calls are words filed in the database; no cut-off is given here.

What was measured:
[1] = system: MCF7; assay: Cytotoxicity against human MCF7 cells at 5 uM by MTT assay; format: functional
[2] = system: MDA-MB-231; assay: Cytotoxicity against human MDA-MB-231 cells at 5 uM by MTT assay; format: functional
[3] = system: HCC1954; assay: Cytotoxicity against human HCC1954 cells at 5 uM by MTT assay; format: functional
[4] = system: MCF7; assay: Cytotoxicity against human MCF7 cells by MTT assay; format: functional, cell-based
[5] = system: MDA-MB-231; assay: Cytotoxicity against human MDA-MB-231 cells by MTT assay; format: functional, cell-based
[6] = system: HCC1954; assay: Cytotoxicity against human HCC1954 cells by MTT assay; format: functional, cell-based
[7] = system: SK-BR-3; assay: Cytotoxicity against human SKBR3 cells by MTT assay; format: functional, cell-based
[8] = target: Dual specificity tyrosine-phosphorylation-regulated kinase 1A (Rattus norvegicus) (UniProt Q63470); assay: Inhibition of rat DYRK1A using myelin basic protein as substrate in presence of [gamma33P]ATP after 30 mins by scintillation counting method
[9] = species on record: Sus scrofa; assay: Inhibition of pig CK1delta/epsilon
[10] = target: T1, Phosphatidylinositol 4,5-bisphosphate 3-kinase catalytic subunit alpha isoform (Homo sapiens, UniProt P42336); assay: Inhibition of PI3Kalpha catalytic domain (unknown origin) at 10 uM using PIP2 liposomes as substrate in presence of biotin-labeled PIP3 and GST-GRP1-PH by streptavidin-HRP based assays
T1 sequence (P42336 whole entry, the tested form may be a part, canonical isoform): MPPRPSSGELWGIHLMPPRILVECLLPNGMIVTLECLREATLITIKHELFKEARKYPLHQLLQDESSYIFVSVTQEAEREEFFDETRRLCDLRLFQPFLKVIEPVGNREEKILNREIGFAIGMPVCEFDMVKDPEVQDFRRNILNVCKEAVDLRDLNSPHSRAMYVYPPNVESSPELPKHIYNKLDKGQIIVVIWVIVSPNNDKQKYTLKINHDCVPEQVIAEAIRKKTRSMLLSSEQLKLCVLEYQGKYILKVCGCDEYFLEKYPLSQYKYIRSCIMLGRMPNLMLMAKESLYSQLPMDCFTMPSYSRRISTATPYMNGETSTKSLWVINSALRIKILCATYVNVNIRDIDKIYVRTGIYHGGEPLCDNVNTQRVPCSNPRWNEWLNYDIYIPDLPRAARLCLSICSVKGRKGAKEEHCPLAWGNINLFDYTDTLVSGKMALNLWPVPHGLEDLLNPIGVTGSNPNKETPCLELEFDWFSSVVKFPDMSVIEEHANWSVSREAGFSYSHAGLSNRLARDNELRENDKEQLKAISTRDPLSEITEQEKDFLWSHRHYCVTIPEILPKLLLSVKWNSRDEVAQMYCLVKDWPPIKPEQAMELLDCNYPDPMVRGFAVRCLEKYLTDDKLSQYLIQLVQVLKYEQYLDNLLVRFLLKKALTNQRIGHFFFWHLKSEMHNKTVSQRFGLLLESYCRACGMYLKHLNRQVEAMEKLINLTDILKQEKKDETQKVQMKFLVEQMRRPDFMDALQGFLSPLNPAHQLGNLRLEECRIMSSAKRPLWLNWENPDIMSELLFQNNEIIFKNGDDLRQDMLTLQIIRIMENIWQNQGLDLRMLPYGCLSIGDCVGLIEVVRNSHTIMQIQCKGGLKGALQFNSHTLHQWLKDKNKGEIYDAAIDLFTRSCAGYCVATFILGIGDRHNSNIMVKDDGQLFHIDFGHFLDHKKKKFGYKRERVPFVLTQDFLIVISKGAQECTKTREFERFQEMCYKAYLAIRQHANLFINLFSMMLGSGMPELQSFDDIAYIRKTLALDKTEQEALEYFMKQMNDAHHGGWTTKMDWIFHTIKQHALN

[11] = Tmax in NOD/SCID mouse at 0.5 mg/kg, ip administered as single dose by LC-MS/MS method; format: ADME, organism-based; conditions: in vivo
[12] = Cmax in NOD/SCID mouse at 10 mg/kg, ip administered as single dose by LC-MS/MS method; format: ADME, organism-based; parameters: dose 10 mg/kg, route intraperitoneal; conditions: in vivo
[13] = AUC (0 to 8 hrs) in NOD/SCID mouse at 10 mg/kg, ip administered as single dose by LC-MS/MS method; format: ADME, organism-based; parameters: dose 10 mg/kg, time < 8 hr, route intraperitoneal; conditions: in vivo
[14] = AUC (0 to 8 hrs) in NOD/SCID mouse at 40 mg/kg, ip administered as single dose by LC-MS/MS method; format: ADME, organism-based; parameters: time < 8 hr, dose 40 mg/kg, route intraperitoneal; conditions: in vivo
[15] = AUC (0 to 24 hrs) in NOD/SCID mouse at 10 mg/kg, ip by LC-MS/MS method; format: ADME, organism-based; parameters: time < 24 hr, dose 10 mg/kg, route intraperitoneal; conditions: in vivo
[16] = Tmax in NOD/SCID mouse at 10 mg/kg, ip administered twice by LC-MS/MS method; format: ADME, organism-based; conditions: in vivo
[17] = system: Mus musculus; assay: Toxicity in NOD/SCID mouse assessed as phenotypic changes at 40 mg/kg, ip […]; format: organism-based; conditions: in vivo
[18] = system: Mus musculus; assay: Toxicity in NOD/SCID mouse assessed as phenotypic changes at 10 mg/kg, ip administered once daily for 18 days measured after 1 hr last dose; format: organism-based; conditions: in vivo
[19] = system: Mus musculus; assay: Toxicity in NOD/SCID mouse assessed as change in body weight at 10 mg/kg, ip administered once daily for 18 days measured after 1 hr last dose; format: organism-based; conditions: in vivo
[20] = system: HCC1954; assay: Anti-tumor activity against HER2-amplified human HCC1954 cells xenografted in NOD/SCID mouse assessed as tumor weight at 10 mg/kg, ip administered once daily for 18 days measured after 1 hr last dose (reference value: 0.8 +/- 0.07 g); format: functional
[21] = system: Mus musculus; assay: In vivo inhibition of Akt phosphorylation at Ser473 residue in NOD/SCID mouse tumor xenografted with HER2-amplified human HCC1954 cells at 10 mg/kg, ip administered once daily for 18 days measured after 1 hr last dose; format: functional, organism-based
[22] = system: Mus musculus; assay: In vivo inhibition of ERK1/2 phosphorylation at Thr202/Tyr204 residue in NOD/SCID mouse tumor xenografted with HER2-amplified human HCC1954 cells at 10 mg/kg, ip administered once daily for 18 days measured after 1 hr last dose by […]; format: functional, organism-based
[23] = system: HCC1954; assay: Anti-tumor activity against HER2-amplified human HCC1954 cells xenografted in NOD/SCID mouse assessed as proliferation index at 10 mg/kg, ip administered once daily for 18 days measured after 1 hr last dose by Ki-67/hematoxylin and eosin staining based microscopic analysis (reference value: 78.4 +/- 14.8%); format: functional
[24] = target: RAC-alpha serine/threonine-protein kinase (Homo sapiens) (UniProt P31749); assay: Inhibition of human wild type partial length AKT1 expressed in bacterial expression system at 10 uM by KinomeScan method relative to control
Chain of RAC-alpha serine/threonine-protein kinase (Homo sapiens) (P31749 whole entry, the tested form may be a part): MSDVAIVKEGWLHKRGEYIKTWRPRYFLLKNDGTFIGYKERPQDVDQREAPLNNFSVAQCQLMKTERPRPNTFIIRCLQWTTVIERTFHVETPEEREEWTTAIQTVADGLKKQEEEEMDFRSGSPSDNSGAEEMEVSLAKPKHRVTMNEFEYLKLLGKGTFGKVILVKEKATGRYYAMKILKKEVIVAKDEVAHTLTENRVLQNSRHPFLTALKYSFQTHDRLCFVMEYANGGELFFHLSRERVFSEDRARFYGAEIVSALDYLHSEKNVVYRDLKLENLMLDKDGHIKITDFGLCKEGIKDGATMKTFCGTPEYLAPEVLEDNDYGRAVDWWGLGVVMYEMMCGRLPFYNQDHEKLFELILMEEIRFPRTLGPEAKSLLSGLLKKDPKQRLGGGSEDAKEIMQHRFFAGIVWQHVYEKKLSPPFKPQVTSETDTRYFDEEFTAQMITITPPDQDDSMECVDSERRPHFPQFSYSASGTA

[25] = target: Receptor tyrosine-protein kinase erbB-2 (Homo sapiens) (UniProt P04626); assay: Inhibition of human wild type partial length ERBB2 (K646 to V1225 residues) expressed in mammalian expression system at 10 uM by KinomeScan method relative to control
[26] = target: Tyrosine-protein kinase HCK (Homo sapiens) (UniProt P08631); assay: Inhibition of human wild type full length HCK (M22 to P526 residues) expressed in bacterial expression system at 10 uM by KinomeScan method relative to control
Chain of Tyrosine-protein kinase HCK (Homo sapiens) (P08631 2-526 limits assumed): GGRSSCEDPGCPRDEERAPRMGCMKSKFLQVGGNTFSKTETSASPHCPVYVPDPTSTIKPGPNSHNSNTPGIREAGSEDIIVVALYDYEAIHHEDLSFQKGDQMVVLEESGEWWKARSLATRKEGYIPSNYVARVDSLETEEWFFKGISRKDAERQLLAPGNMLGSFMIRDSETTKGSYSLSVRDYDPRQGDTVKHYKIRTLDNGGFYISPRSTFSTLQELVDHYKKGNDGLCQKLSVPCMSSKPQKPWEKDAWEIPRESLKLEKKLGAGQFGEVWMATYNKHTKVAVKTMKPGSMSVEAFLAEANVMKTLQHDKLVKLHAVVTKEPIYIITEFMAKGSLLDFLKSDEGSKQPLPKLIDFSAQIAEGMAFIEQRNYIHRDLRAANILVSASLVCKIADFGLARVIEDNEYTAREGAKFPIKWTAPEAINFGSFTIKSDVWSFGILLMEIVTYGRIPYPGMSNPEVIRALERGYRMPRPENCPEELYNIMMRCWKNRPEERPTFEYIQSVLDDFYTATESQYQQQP

[27] = target: Muscle, skeletal receptor tyrosine-protein kinase (Homo sapiens) (UniProt O15146); assay: Inhibition of human wild type partial length MUSK (M553 to V869 residues) expressed in bacterial expression system at 10 uM by KinomeScan method relative to control
Chain of Muscle, skeletal receptor tyrosine-protein kinase (Homo sapiens) (O15146 whole entry, the tested form may be a part): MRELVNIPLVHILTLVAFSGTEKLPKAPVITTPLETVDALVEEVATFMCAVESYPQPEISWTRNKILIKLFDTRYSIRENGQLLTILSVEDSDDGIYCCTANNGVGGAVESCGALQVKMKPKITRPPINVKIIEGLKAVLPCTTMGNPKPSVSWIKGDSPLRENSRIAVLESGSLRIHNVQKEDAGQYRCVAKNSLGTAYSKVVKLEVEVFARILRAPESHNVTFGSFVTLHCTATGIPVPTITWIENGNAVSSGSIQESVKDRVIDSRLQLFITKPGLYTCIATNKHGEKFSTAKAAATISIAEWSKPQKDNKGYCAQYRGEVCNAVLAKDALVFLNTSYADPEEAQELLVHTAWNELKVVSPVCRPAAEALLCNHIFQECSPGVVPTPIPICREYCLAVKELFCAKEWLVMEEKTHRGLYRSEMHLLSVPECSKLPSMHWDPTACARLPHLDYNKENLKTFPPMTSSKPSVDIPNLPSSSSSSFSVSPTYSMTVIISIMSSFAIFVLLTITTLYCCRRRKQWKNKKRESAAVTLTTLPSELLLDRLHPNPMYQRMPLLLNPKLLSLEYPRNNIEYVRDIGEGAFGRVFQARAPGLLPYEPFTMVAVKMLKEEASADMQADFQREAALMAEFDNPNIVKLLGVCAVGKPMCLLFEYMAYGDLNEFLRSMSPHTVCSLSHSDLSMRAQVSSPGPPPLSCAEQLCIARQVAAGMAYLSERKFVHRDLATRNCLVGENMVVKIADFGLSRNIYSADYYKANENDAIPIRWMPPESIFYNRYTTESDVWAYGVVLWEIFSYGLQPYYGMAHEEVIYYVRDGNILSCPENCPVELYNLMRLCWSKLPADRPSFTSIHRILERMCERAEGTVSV

[28] = target: Platelet-derived growth factor receptor beta (Homo sapiens) (UniProt P09619); assay: Inhibition of human wild type partial length PDGFRB (V582 to Y1009 residues) expressed in bacterial expression system at 10 uM by KinomeScan method relative to control
Chain of Platelet-derived growth factor receptor beta (Homo sapiens) (P09619 whole entry, the tested form may be a part, canonical isoform): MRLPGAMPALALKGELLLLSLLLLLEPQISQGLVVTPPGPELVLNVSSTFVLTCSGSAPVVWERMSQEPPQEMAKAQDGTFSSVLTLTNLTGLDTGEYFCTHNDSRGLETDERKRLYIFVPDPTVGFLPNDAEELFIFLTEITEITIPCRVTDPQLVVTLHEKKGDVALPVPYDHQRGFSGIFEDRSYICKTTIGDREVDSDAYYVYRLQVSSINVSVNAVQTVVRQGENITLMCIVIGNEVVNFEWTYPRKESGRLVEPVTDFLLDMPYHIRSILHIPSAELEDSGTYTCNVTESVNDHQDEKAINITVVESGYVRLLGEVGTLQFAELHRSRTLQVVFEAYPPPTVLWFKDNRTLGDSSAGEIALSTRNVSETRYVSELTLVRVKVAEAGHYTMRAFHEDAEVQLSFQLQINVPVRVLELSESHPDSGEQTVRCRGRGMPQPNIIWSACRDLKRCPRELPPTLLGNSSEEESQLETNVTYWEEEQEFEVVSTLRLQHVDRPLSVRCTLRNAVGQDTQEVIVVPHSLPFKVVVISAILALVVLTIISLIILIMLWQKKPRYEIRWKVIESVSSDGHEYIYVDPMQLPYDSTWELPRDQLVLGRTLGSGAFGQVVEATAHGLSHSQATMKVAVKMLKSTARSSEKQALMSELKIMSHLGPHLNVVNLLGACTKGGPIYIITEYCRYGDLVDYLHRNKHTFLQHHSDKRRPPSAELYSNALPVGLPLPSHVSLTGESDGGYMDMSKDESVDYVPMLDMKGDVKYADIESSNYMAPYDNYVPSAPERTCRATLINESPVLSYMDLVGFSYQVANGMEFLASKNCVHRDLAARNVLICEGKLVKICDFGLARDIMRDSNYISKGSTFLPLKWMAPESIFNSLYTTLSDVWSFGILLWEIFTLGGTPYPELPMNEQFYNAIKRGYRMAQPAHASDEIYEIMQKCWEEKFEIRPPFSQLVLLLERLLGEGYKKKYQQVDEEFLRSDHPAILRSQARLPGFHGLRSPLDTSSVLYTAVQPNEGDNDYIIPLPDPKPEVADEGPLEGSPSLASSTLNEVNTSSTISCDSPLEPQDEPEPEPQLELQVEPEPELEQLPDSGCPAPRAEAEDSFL

[29] = target: T1, Phosphatidylinositol 4,5-bisphosphate 3-kinase catalytic subunit alpha isoform; assay: Inhibition of human wild type partial length PIK3CA (R108 to N1068 residues) expressed in mammalian expression system at 10 uM by KinomeScan method relative to control
[30] = target: Proto-oncogene tyrosine-protein kinase Src (Homo sapiens) (UniProt P12931); assay: Inhibition of human wild type partial length SRC (L240 to L536 residues) expressed in bacterial expression system at 10 uM by KinomeScan method relative to control
Chain of Proto-oncogene tyrosine-protein kinase Src (Homo sapiens) (P12931 2-536 limits assumed): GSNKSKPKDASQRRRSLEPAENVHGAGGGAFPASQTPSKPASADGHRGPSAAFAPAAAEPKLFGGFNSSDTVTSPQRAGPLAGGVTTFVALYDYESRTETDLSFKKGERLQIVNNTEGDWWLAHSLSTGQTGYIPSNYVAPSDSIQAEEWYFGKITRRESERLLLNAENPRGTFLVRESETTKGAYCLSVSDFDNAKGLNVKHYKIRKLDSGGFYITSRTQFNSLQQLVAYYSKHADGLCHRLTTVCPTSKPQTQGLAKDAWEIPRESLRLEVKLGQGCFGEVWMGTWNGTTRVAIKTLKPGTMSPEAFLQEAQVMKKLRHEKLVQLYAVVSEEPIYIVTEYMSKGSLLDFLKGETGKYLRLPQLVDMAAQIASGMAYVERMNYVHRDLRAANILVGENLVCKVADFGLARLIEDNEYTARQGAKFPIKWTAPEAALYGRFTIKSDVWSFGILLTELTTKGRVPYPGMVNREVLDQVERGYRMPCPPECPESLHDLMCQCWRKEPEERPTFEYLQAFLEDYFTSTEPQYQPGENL

[31] = target: Tyrosine-protein kinase SYK (Homo sapiens) (UniProt P43405); assay: Inhibition of human wild type partial length SYK (D354 to N635 residues) expressed in bacterial expression system at 10 uM by KinomeScan method relative to control
[32] = system: Mus musculus; assay: In vivo inhibition of Akt phosphorylation at ser-473 residue in NOD/SCID mouse tumor xenografted with HER2-amplified human HCC1954 cells at 10 mg/kg, ip administered once daily for 18 days measured after 1 hr last dose by […]; format: functional, organism-based

inhibition [8]: inactive
inhibition [9]: inactive
inhibition [10]: Active
Tmax [11]: 0.5 h
Cmax [12]: 4.3 to 4.32 µM
AUC(0-t) at 8 h [13]: 19.9 µM·h
AUC(0-t) at 8 h [14]: 131 µM·h
AUC(0-t) at 24 h [15]: 39.1 µM·h
Tmax [16]: 2 h
inhibition [24]: 3%
inhibition [25]: 0%
inhibition [26]: 13%
inhibition [27]: 0%
inhibition [28]: 0%
inhibition [29]: 0%
inhibition [30]: 3%
inhibition [31]: 10%
SMILES: Cc1nc2nc(Sc3ccccc3)cnc2cc1NC(=O)Nc1ccccc1
Activity [1]: >50%
Activity [2]: >50%
Activity [3]: >50%
IC50 [4]: 3.1 µM
IC50 [5]: 6.1 µM
IC50 [6]: 1.5 µM
IC50 [7]: 1.8 µM
Activity [17]: Toxic
Activity [18]: Non-Toxic
Activity [19]: Non-Toxic
Activity [20]: 0.2 g
inhibition [21]: Active
inhibition [22]: Active
Activity_index [23]: 25.7%
inhibition [32]: Active
